Source: US20240360165A1, “INHIBITORS OF CYCLIN DEPENDENT KINASE 7 (CDK7)” (Syros Pharmaceuticals, Inc., priority 2016, published 2024)
Where two headings read alike, the source gives them in different places.

Tests used:
A673 cells = assay: Inhibition of proliferation of A673 cells (CyQUANT, 72 hour); format: cell-based, human
Protocol: A673 cells are a cell line derived from human […] Ewing's sarcoma. Representative compounds of the invention were tested at different concentrations (from […]; 0.5 log serial dilutions) for their ability to inhibit the proliferation of A673 cells. Known CDK inhibitors dinaciclib or N-((1S,3R)-3-((5-chloro-4-(1H-indol-3-yl)pyrimidin-2-yl)amino)cyclohexyl)-5-((E)-4-(dimethylamino)but-2-enamido)picolinamide and triptolide were used as positive controls. Cells were grown in Dulbecco's Modified Eagle's Medium, +10% FBS+1 mM Sodium Pyruvate. The cells were cultured at 37° C. in a humidified chamber in the presence of 5% CO2. Proliferation assays were conducted over a 72 hour time period. CyQUANT® (Life Technologies, Chicago, IL USA) was used to assess the anti-proliferative effects of the compounds following manufacturer's directions and utilizing the reagents supplied with the CyQUANT® kit.

[1] = target: T1, CDK12 (aa686-1082)/Cyclin K complex (Homo sapiens, UniProt Q9NYV4); assay: CDK12 inhibition assay (Caliper/LabChip EZ Reader kinase assay); format: biochemical; conditions: Table 1; CDK12 (aa686-1082)/Cyclin K 50 nM, ATP 2 mM, 3 hr at 27° C.
T1 construct: CDK12 (aa686-1082)/Cyclin K complex
T1 sequence (Q9NYV4 686-1082, species assumed): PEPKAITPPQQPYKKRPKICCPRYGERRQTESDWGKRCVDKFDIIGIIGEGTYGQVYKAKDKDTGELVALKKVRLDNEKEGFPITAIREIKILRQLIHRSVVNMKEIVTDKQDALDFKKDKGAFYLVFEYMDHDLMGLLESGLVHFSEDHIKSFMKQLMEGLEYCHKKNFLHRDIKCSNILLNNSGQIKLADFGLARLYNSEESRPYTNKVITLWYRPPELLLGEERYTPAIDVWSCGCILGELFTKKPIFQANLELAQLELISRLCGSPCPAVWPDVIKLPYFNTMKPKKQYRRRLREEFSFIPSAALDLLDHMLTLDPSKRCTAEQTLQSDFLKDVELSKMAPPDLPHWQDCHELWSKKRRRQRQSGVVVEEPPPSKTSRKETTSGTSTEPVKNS
T1 sequence (O75909 whole entry partner, species assumed, the tested form may be a part): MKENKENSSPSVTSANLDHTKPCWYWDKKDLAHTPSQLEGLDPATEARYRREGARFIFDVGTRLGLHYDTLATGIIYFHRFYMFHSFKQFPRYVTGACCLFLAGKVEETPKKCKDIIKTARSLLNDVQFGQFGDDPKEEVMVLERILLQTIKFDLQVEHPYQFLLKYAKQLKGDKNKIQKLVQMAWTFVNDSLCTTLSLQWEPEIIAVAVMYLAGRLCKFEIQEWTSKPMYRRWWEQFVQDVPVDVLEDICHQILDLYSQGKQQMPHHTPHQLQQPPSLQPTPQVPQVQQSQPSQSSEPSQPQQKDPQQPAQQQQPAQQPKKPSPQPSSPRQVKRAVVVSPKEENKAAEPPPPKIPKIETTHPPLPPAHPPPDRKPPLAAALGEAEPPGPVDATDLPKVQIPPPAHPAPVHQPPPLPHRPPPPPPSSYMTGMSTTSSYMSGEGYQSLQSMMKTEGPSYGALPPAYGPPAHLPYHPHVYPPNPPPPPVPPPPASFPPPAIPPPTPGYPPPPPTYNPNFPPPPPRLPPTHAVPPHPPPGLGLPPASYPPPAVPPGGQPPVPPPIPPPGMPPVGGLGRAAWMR
Protocol: (§1) Compounds of the invention were assayed for inhibition of CDK7, CDK9, CDK12, and CDK2 activity at Biortus Biosciences (Jiangyin, Jiangsu Province, P.R. of China) using kinase assays for each CDK developed with a Caliper/LabChip EZ Reader (Perkin Elmer, Waltham, MA).
(§2) Furthermore, the CDK9 inhibition assay used CDK9/Cyclin T1 complex (8 nM) and “5-FAM-CDK9tide” peptide substrate (2 μM, synthesized fluorophore-labeled peptide with the following sequence: 5-FAM-GSRTPMY-NH2 where 5-FAM is defined above and NH2 signifies a C-terminal amide) with 10 mM MgCl2 in the buffer composition listed above. […] Additionally, the CDK2 inhibition assay used CDK2/Cyclin E1 complex (0.5 nM) and “5-FAM-CDK7tide” ([…]) as defined above, with 2 mM MgCl2 in the buffer composition listed above.

[2] = target: CDK7/Cyclin H/MAT1 complex (Homo sapiens, UniProt P50613); assay: CDK7 inhibition assay (Caliper/LabChip EZ Reader kinase assay); format: biochemical
CDK7/Cyclin H/MAT1 complex, sequence (P50613 whole entry, species assumed): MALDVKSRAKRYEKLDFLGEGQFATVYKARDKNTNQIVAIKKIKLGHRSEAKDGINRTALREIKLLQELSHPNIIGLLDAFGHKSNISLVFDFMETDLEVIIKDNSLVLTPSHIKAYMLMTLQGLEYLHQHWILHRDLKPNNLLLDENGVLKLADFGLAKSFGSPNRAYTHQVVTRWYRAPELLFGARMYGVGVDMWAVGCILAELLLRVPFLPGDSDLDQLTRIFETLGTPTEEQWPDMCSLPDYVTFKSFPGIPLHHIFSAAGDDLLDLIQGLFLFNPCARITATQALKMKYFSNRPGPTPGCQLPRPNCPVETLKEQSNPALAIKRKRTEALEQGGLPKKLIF
CDK7/Cyclin H/MAT1 complex, sequence (P51946 whole entry partner, species assumed): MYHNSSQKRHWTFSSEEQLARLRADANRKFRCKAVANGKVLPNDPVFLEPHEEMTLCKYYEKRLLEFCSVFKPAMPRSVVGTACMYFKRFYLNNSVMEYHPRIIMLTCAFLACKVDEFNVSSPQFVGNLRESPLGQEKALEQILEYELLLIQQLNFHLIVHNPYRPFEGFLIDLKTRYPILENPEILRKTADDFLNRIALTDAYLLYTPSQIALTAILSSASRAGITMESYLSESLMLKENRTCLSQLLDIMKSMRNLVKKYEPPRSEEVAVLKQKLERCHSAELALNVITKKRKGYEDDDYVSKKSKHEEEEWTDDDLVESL
CDK7/Cyclin H/MAT1 complex, sequence (P51948 whole entry partner, species assumed): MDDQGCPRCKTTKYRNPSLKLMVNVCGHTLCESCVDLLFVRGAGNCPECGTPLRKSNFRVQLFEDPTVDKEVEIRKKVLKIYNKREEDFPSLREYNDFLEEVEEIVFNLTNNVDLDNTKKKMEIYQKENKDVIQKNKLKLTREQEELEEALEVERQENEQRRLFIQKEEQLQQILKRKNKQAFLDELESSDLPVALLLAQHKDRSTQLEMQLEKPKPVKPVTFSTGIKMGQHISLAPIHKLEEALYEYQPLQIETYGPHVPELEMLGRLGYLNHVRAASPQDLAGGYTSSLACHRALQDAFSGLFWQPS
Protocol: as §1, §2

CDK2/Cyclin E1 complex = CDK2/Cyclin E1 complex (Homo sapiens, UniProt P24941); assay: CDK2 inhibition assay (Caliper/LabChip EZ Reader kinase assay); format: biochemical
Protocol: as §1, §2

CDK9/Cyclin T1 complex = CDK9/Cyclin T1 complex (Homo sapiens, UniProt P50750); assay: CDK9 inhibition assay (Caliper/LabChip EZ Reader kinase assay); format: biochemical
CDK9/Cyclin T1 complex, sequence (P50750 whole entry, species assumed): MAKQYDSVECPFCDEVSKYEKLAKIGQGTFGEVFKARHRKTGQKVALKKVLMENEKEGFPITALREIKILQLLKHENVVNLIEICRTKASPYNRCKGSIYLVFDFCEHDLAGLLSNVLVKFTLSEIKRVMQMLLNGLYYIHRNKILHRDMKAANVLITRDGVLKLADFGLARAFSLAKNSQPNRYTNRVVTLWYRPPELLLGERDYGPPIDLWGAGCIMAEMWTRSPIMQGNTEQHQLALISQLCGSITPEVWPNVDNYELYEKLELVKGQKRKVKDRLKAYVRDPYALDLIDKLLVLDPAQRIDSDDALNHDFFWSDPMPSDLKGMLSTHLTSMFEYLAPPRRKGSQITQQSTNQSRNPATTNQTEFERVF
CDK9/Cyclin T1 complex, sequence (O60563 whole entry partner, species assumed): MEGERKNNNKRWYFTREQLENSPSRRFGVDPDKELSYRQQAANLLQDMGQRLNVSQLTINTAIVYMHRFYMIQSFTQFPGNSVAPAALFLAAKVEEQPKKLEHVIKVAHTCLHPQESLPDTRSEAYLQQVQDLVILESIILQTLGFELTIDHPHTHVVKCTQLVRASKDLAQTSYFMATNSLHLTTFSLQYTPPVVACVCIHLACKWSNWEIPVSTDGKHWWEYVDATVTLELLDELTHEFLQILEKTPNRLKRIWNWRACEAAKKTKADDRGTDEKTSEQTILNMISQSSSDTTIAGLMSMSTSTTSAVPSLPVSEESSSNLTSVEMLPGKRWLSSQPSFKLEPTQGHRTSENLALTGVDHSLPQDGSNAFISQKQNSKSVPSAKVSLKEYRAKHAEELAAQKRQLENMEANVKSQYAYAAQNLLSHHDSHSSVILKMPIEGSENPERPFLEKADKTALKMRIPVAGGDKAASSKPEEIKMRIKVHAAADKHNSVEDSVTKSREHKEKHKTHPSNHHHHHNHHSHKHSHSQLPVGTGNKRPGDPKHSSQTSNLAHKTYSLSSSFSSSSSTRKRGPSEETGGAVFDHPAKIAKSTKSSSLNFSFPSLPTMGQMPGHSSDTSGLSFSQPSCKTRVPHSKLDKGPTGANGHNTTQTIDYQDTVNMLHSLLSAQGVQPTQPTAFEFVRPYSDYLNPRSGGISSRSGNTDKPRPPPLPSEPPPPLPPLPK
Protocol: as §1, §2

[3] = Table 1, CDK7/Cyclin H/MAT1 6 nM, ATP 2 mM, 35 min at 27° C.
[4] = Table 1, CDK2/Cyclin E1 0.5 nM, ATP 2 mM, 35 min at 27° C.
[5] = Table 1, CDK9/Cyclin T1 8 nM, ATP 2 mM, 15 min at 27° C.
[6] = Homo sapiens, A673, 72 h, A673 cells, 72 hour, CyQUANT, read-out: Inhibition of Proliferation of A673 Cells (calculated IC50)
[7] = Homo sapiens, A673, 72 h, Table 3, comparison with structural analogs, 72 hour proliferation, read-out: A673 Cells
[8] = Table 3, comparison with structural analogs

IC50 [1] [nM] | IC50 [2, 3] [nM] | IC50 (CDK2/Cyclin E1 complex; [4]) [nM] | IC50 (CDK9/Cyclin T1 complex; [5]) [nM] | IC50 [2, 8] [nM] | IC50 (CDK2/Cyclin E1 complex; [8]) [nM] | IC50 (CDK9/Cyclin T1 complex; [8]) [nM] | SMILES | IC50 (A673 cells; A673 cells, 72 hour, CyQUANT, read-out: Inhibition of Proliferation of A673 Cells (calculated IC50)) [nM] | IC50 (A673 cells; [6]) [nM] | IC50 (A673 cells; [7]) [nM]
> 5000 | 200 to 5000 | > 5000 | > 5000 | – | – | – | C#Cc1cnc(N[C@H]2CCCNC2)nc1-c1cn(C)c2ccccc12 [Compound 195] | 20 to 200 | – | –
200 to 5000 | < 20 | 200 to 5000 | 200 to 5000 | – | – | – | CCc1cnc(N[C@H]2CCCNC2)nc1-c1n[nH]c2ncccc12 [Compound 262, 5-ethyl-N-[(3S)-3-piperidyl]-4-(1H-pyrazolo[3,4-b]pyridin-3-yl)pyrimidin-2-amine] | – | 20 to 200 | –
200 to 5000 | < 20 | 200 to 5000 | 200 to 5000 | – | – | – | CCC(=O)N[C@@H]1CNC[C@H](Nc2ncc(C(F)(F)F)c(-c3c[nH]c4c(S(C)(=O)=O)cccc34)n2)C1 (single isomer, unassigned) [Compound 259] | – | 20 to 200 | –
200 to 5000 | < 20 | 200 to 5000 | 200 to 5000 | – | – | – | CN1CCC[C@H](Nc2ncc(Cl)c(-c3c[nH]c4ccccc34)n2)C1 [Compound 136] | – | 20 to 200 | –
> 5000 | 200 to 5000 | > 5000 | > 5000 | – | – | – | CC1(C)CCNC[C@@H]1Nc1ncc(C(F)(F)F)c(-c2c[nH]c3ccccc23)n1 (single isomer, unassigned) [Compound 209] | – | 20 to 200 | –
200 to 5000 | < 20 | 200 to 5000 | 200 to 5000 | – | – | – | O=S1(=O)CCN(c2cccc3c(-c4nc(N[C@H]5CCCNC5)ncc4Cl)c[nH]c23)CC1 [Compound 196, 5-chloro-4-[7-(1,1-dioxo-1,4-thiazinan-4-yl)-1H-indol-3-yl]-N-[(3S)-3-piperidyl]pyrimidin-2-amine] | – | 20 to 200 | –
200 to 5000 | < 20 | 200 to 5000 | 200 to 5000 | – | – | – | CCc1cnc(N[C@H]2CCCNC2)nc1-c1n[nH]c2c(F)cccc12 [Compound 143, (S)-5-ethyl-4-(7-fluoro-1H-indazol-3-yl)-N-(piperidin-3-yl)pyrimidin-2-amine] | – | < 20 | –
200 to 5000 | < 20 | 200 to 5000 | 200 to 5000 | – | – | – | CSc1cnc(N[C@H]2CCCNC2)nc1-c1c[nH]c2cc(C#N)ccc12 [Compound 272, 3-[5-methylsulfanyl-2-[[(3S)-3-piperidyl]amino]pyrimidin-4-yl]-1H-indole-6-carbonitrile] | – | 20 to 200 | –
200 to 5000 | < 20 | 200 to 5000 | 200 to 5000 | – | – | – | Cc1c(-c2ccc3c(-c4nc(N[C@H]5CCCNC5)ncc4C(F)(F)F)c[nH]c3c2)cnn1C [Compound 227, 4-[6-(1,5-dimethylpyrazol-4-yl)-1H-indol-3-yl]-N-[(3S)-3-piperidyl]-5-(trifluoromethyl) pyrimidin-2-amine] | – | 20 to 200 | –
> 5000 | 20 to 200 | > 5000 | > 5000 | – | – | – | CCc1cnc(N[C@H]2CCCNC2)nc1-c1c[nH]c2c(S(=O)(=O)O)cccc12 [Compound 362, 3-[5-ethyl-2-[[(3S)-3-piperidyl]amino]pyrimidin-4-yl]-1H-indole-7-sulfonic acid] | – | – | –
200 to 5000 | < 20 | 200 to 5000 | 200 to 5000 | – | – | – | FC1(F)CNC[C@@H](Nc2ncc(C(F)(F)F)c(-c3c[nH]c4ccccc34)n2)C1 [Compound 236, N-[(3S)-5,5-difluoro-3-piperidyl]-4-(1H-indol-3-yl)-5-(trifluoromethyl) pyrimidin-2-amine] | – | 20 to 200 | –
> 5000 | 20 to 200 | > 5000 | > 5000 | – | – | – | CC(C)C1CC[C@H](Nc2ncc(C(F)(F)F)c(-c3c[nH]c4ccccc34)n2)CN1 (mixture of isomers) [Compound 257] | – | 200 to 5000 | –
200 to 5000 | 20 to 200 | – | 200 to 5000 | – | – | – | FC(F)(F)c1cnc(N[C@H]2CCCNC2)nc1-c1c[nH]c2c(-c3ccncc3)cccc12 [Compound 162] | – | < 20 | –
– | – | – | – | < 20 | 200 to 5000 | 20 to 200 | FC(F)(F)c1cnc(N[C@H]2CCCNC2)nc1-c1c[nH]c2ccccc12 | – | – | < 20
200 to 5000 | 20 to 200 | 200 to 5000 | 200 to 5000 | – | – | – | CC1(O)CCC(c2cccc3c(-c4nc(N[C@H]5CCCNC5)ncc4C(F)(F)F)c[nH]c23)CC1 (single isomer, unassigned) [Compound 193] | – | – | –
200 to 5000 | < 20 | 200 to 5000 | 200 to 5000 | – | – | – | CCc1cnc(N[C@H]2CCCNC2)nc1-c1c[nH]c2ncc(F)cc12 [Compound 270, (S)-5-ethyl-4-(5-fluoro-1H-pyrrolo[2,3-b]pyridin-3-yl)-N-(piperidin-3-yl)pyrimidin-2-amine] | – | – | –
> 5000 | 200 to 5000 | > 5000 | > 5000 | – | – | – | CCC(=O)N[C@H]1CNC[C@@H](Nc2ncc(C(F)(F)F)c(-c3c[nH]c4c(S(C)(=O)=O)cccc34)n2)C1 [Compound 254, N-[(3R,5S)-5-[[4-(7-methylsulfonyl-1H-indol-3-yl)-5-(trifluoromethyl)pyrimidin-2-yl]amino]-3-piperidyl]propanamide] | – | – | –
– | – | > 5000 | > 5000 | – | – | – | FC(F)(F)c1cnc(N[C@H]2CCCNC2)nc1-c1c[nH]c2cc(N3CCCC3)ccc12 [Compound 213, N-[(3S)-3-piperidyl]-4-(6-pyrrolidin-1-yl-1H-indol-3-yl)-5-(trifluoromethyl) pyrimidin-2-amine] | – | 20 to 200 | –
200 to 5000 | 20 to 200 | – | 200 to 5000 | – | – | – | FC(F)(F)c1cnc(N[C@H]2CCCNC2)nc1-c1c[nH]c2c(Br)cccc12 [Compound 163] | – | 20 to 200 | –
> 5000 | 20 to 200 | > 5000 | > 5000 | – | – | – | CCc1cnc(N[C@H]2CCCNC2)nc1-c1c[nH]c2c(S(=O)O)cccc12 [Compound 363, 3-[5-ethyl-2-[[(3S)-3-piperidyl]amino]pyrimidin-4-yl]-1H-indole-7-sulfinic acid] | – | – | –
200 to 5000 | < 20 | 200 to 5000 | 200 to 5000 | – | – | – | FC(F)(F)c1cnc(N[C@H]2CCCNC2)nc1-c1c[nH]c2cc(-n3ccnc3)ccc12 [Compound 248, 4-(6-imidazol-1-yl-1H-indol-3-yl)-N-[(3S)-3-piperidyl]-5-(trifluoromethyl) pyrimidin-2-amine] | – | – | –
– | – | – | – | < 20 | 200 to 5000 | 200 to 5000 | FC(F)(F)c1cnc(N[C@H]2CCCNC2)nc1-c1n[nH]c2ccccc12 [drawing 562] | – | – | < 20
200 to 5000 | 20 to 200 | – | 200 to 5000 | – | – | – | Cn1cc(-c2cccc3c(-c4nc(N[C@H]5CCCNC5)ncc4C(F)(F)F)c[nH]c23)cn1 [Compound 164] | – | < 20 | –
– | – | – | – | 200 to 5000 | 200 to 5000 | 200 to 5000 | C[C@]1(N)CC[C@@H](Nc2ncc(C(F)(F)F)c(-c3n[nH]c4ccccc34)n2)CC1 [reference compound] | – | – | 20 to 200
200 to 5000 | 20 to 200 | 200 to 5000 | 200 to 5000 | – | – | – | CC1(O)CCC(c2cccc3c(-c4nc(N[C@H]5CCCNC5)ncc4C(F)(F)F)c[nH]c23)CC1 (single isomer, unassigned) [Compound 192] | – | – | –
200 to 5000 | 20 to 200 | 200 to 5000 | 200 to 5000 | – | – | – | FC(F)(F)c1cnc(N[C@H]2CCC3(CCCCC3)NC2)nc1-c1c[nH]c2ccccc12 [Compound 240] | – | – | –
200 to 5000 | < 20 | > 5000 | > 5000 | – | – | – | C[C@]1(O)CCN(C(=O)c2ccc3c(-c4nc(N[C@H]5CCCNC5)ncc4C(F)(F)F)c[nH]c3c2)C1 [Compound 220, [(3S)-3-hydroxy-3-methyl-pyrrolidin-1-yl]-[3-[2-[[(3S)-3-piperidyl]amino]-5-(trifluoromethyl)pyrimidin-4-yl]-1Hindol-6-yl]methanone] | – | – | –
– | – | – | – | 200 to 5000 | 200 to 5000 | > 5000 | C[C@]1(N)CC[C@@H](Nc2ncc(C(F)(F)F)c(-c3c[nH]c4ccccc34)n2)CC1 [reference compound] | – | – | 20 to 200
